Laboratory results reported in patent US20240285971A1, “Intratumoral Alpha-Emitter Radiation in Combination with Vasculature Inhibitors” (priority 2021, published 2024).

System: Glioblastoma Multiforme (GBM) xerographs, U87 cells
Assay: DaRT with systemic BEV on U87 GBM xenografts, BEV started five days post seed insertion (FIG. 3)
Assay type: in vivo, athymic nude mice
Conditions: U87 intracutaneous flank tumors; single seed in tumor; BEV or IgG 5 mg/kg i.p., 3 doses per week for 3 weeks, from five days post seed insertion; compared with other groups
Method: In the experiment, the efficacy of DaRT with a systemic administration of BEV was tested on Glioblastoma Multiforme (GBM) xerographs. U87 cells were intracutaneously inoculated in a total of 5·10^6 cells per mouse (in a volume of 100 μl) to the flank of athymic nude mice. The tumors were allowed to grow to an average size of 5-6 mm (longest diameter) for 9 days, when either a single DaRT or inert (non-radioactive control) seed was inserted to the middle of each tumor. Five days post seed insertion, each mouse received an i.p (intraperitoneal) administration of either IgG (control antibody) or BEV. This administration included 3 doses per week (5 mg/kg each) for 3 consecutive weeks (a total of 9 doses). The mice were divided to 4 treatment groups as follows: • a. Inert+Control IgG (untreated control); • b. Inert+BEV (Bev as a monotherapy); • c. DaRT+Control IgG (DaRT as a monotherapy); • d. DaRT+BEV (The combined modality)
Tumor volumes were monitored 3 times per week, along with radioactivity measurement using a Geiger counter to confirm that the DaRT seeds are present in the tumor.

Bevacizumab
tumor growth / tumor volume: moderate but significant attenuation in tumor growth
